According to US8735364B2, “Antisense modulation of apolipoprotein B expression” (Genzyme Corporation, priority 2001, dated 2014):
Oligonucleotides are written 5' to 3', each unit as a sugar letter and its base; * is a phosphorothioate linkage, no mark a phosphodiester; rarer units and linkages stand in square brackets, end groups in braces. Plain capitals give the bases only. e = 2'-O-(2-methoxyethyl) (MOE); [5mC] = 5-methylcytosine; d = 2'-deoxy (DNA)

Tested on: mouse apolipoprotein B mRNA
Assay: Inhibition of mouse apolipoprotein B mRNA levels in primary hepatocytes, quantitative real-time PCR
Type: cell-based
Parameters: %INHIB of mouse apolipoprotein B mRNA levels: concentration or dose not given beside the values
Conditions: for %INHIB of mouse apolipoprotein B mRNA levels: averages from two experiments
Procedure: Primary mouse hepatocytes were prepared from CD-1 mice purchased from Charles River Labs (Wilmington, Mass.) and were routinely cultured in Hepatoyte Attachment Media (Gibco) supplemented with 10% Fetal Bovine Serum (Gibco/Life Technologies, Gaithersburg, Md.), 250 nM dexamethasone (Sigma), and 10 nM bovine insulin (Sigma). Cells were seeded into 96-well plates (Falcon-Primaria #3872) at a density of 10000 cells/well for use in RT-PCR analysis.
When cells reached 80% confluency, they were treated with oligonucleotide. For cells grown in 96-well plates, wells were washed once with 200 μL OPTI-MEM™-1 reduced-serum medium (Gibco BRL) and then treated with 130 μL of OPTI-MEM™-1 containing 3.75 μg/mL LIPOFECTIN™ (Gibco BRL) and the desired concentration of oligonucleotide. After 4-7 hours of treatment, the medium was replaced with fresh medium. Cells were harvested 16-24 hours after oligonucleotide treatment.
Quantitation of apolipoprotein B mRNA levels was determined by real-time quantitative PCR using the ABI PRISM™ 7700 Sequence Detection System (PE-Applied Biosystems, Foster City, Calif.) according to manufacturer's instructions. This is a closed-tube, non-gel-based, fluorescence detection system which allows high-throughput quantitation of polymerase chain reaction (PCR) products in real-time. As opposed to standard PCR, in which amplification products are quantitated after the PCR is completed, products in real-time quantitative PCR are quantitated as they accumulate. This is accomplished by including in the PCR reaction an oligonucleotide probe that anneals specifically between the forward and reverse PCR primers, and contains two fluorescent dyes. A reporter dye (e.g., JOE, FAM, or VIC, obtained from either Operon Technologies Inc., Alameda, Calif. or PE-Applied Biosystems, Foster City, Calif.) is attached to the 5′ end of the probe and a quencher dye (e.g., TAMRA, obtained from either Operon Technologies Inc., Alameda, Calif. or PE-Applied Biosystems, Foster City, Calif.) is attached to the 3′ end of the probe. When the probe and dyes are intact, reporter dye emission is quenched by the proximity of the 3′ quencher dye. During amplification, annealing of the probe to the target sequence creates a substrate that can be cleaved by the 5′-exonuclease activity of Taq polymerase. […] With each cycle, additional reporter dye molecules are cleaved from their respective probes, and the fluorescence intensity is monitored at regular intervals by laser optics built into the ABI PRISM™ 7700 Sequence Detection System. In each assay, a series of parallel reactions containing serial dilutions of mRNA from untreated control samples generates a standard curve that is used to quantitate the percent inhibition after antisense oligonucleotide treatment of test samples.
PCR reagents were obtained from PE-Applied Biosystems, Foster City, Calif. RT-PCR reactions were carried out by adding 25 μL PCR cocktail (1× TAQMAN™ buffer A, 5.5 mM MgCl2, 300 μM each of DATP, dCTP and dGTP, 600 μM of dUTP, 100 nM each of forward primer, reverse primer, and probe, 20 Units RNAse inhibitor, 1.25 Units AMPLITAQ GOLD™, and 12.5 Units MuLV reverse transcriptase) to 96 well plates containing 25 μL total RNA solution. The RT reaction was carried out by incubation for 30 minutes at 48° C. Following a 10 minute incubation at 95° C. to activate the AMPLITAQ GOLD™, 40 cycles of a two-step PCR protocol were carried out: 95° C. for 15 seconds (denaturation) followed by 60° C. for 1.5 minutes (annealing/extension).
Gene target quantities obtained by real time RT-PCR are normalized using either the expression level of GAPDH, a gene whose expression is constant, or by quantifying total RNA using RiboGreen™ (Molecular Probes, Inc. Eugene, Oreg.). GAPDH expression is quantified by real time RT-PCR, by being run simultaneously with the target, multiplexing, or separately. Total RNA is quantified using RiboGreen™ RNA quantification reagent from Molecular Probes. […]

Substance | %INHIB of mouse apolipoprotein B mRNA levels [%] | further results
147482 (antisense eG*eT*e[5mC]*e[5mC]*eA*dG*d[5mC]*d[5mC]*dT*dA*dG*dG*dA*dA*d[5mC]*eA*e[5mC]*eT*e[5mC]*eA) [compound 147482] | 59 | –
147768 (antisense e[5mC]*e[5mC]*e[5mC]*eA*eT*dA*dT*dG*dG*dA*dG*dA*dA*dA*dT*e[5mC]*e[5mC]*eT*eT*e[5mC]) [compound 147768] | 24 | –
147775 (antisense e[5mC]*eT*eG*eT*e[5mC]*dA*dT*dG*dA*d[5mC]*dT*dG*d[5mC]*d[5mC]*d[5mC]*eT*eT*eT*eA*e[5mC]) [compound 147775] | 52 | –
147494 (antisense eA*e[5mC]*eA*eA*e[5mC]*dT*dG*dG*dG*dA*dT*dA*dG*dT*dG*eT*eA*eG*e[5mC]*e[5mC]) [compound 147494] | 84 | –
147498 (antisense eT*eG*eG*eG*e[5mC]*dA*dA*d[5mC]*dG*dA*dT*dA*dT*d[5mC]*dT*eG*eA*eT*eT*eG) [compound 147498] | 0 | –
147767 (antisense e[5mC]*eG*eT*e[5mC]*e[5mC]*dT*dT*dG*dA*dG*d[5mC]*dA*dG*dT*dG*e[5mC]*e[5mC]*e[5mC]*eG*eA) [compound 147767] | 5 | –
147765 (antisense eA*eG*eG*e[5mC]*e[5mC]*d[5mC]*dA*dG*dT*dT*d[5mC]*d[5mC]*dA*dT*dG*eA*e[5mC]*e[5mC]*e[5mC]*eT) [compound 147765] | 59 | –
147476 (antisense eG*eA*eG*eG*eA*dG*dA*dT*dT*dG*dG*dA*dT*d[5mC]*dT*eT*eA*eA*eG*eG) [compound 147476] | 13 | –
147507 (antisense eA*eT*eT*eG*eG*d[5mC]*dT*dT*d[5mC]*dA*dT*dT*dG*dG*d[5mC]*eA*eA*e[5mC]*eA*e[5mC]) [compound 147507] | 81 | –
147501 (antisense e[5mC]*eT*eT*eG*eG*dT*dT*dA*dA*dA*d[5mC]*dT*dA*dA*dT*eG*eG*eT*eG*e[5mC]) [compound 147501] | 18 | –
147484 (antisense eT*eT*e[5mC]*eA*eT*d[5mC]*d[5mC]*dG*dA*dG*dA*dA*dG*dT*dT*eG*eG*eG*eA*e[5mC]) [compound 147484] | 49 | –
147762 (antisense eA*eT*eG*e[5mC]*eT*d[5mC]*d[5mC]*dA*dT*dT*d[5mC]*dT*d[5mC]*dA*d[5mC]*eA*eT*eG*e[5mC]*eT) [compound 147762] | 46 | –
147499 (antisense e[5mC]*eT*eG*e[5mC]*eA*dG*dG*dG*d[5mC]*dG*dT*d[5mC]*dA*dG*dT*eG*eA*e[5mC]*eA*eA) [compound 147499] | 29 | –
147502 (antisense eA*eT*eG*eG*eG*dA*dG*d[5mC]*dA*dT*dG*dG*dA*dG*dG*eT*eT*eG*eG*e[5mC]) [compound 147502] | 16 | –
147770 (antisense eG*eT*eG*eT*eT*dG*dA*dA*dT*d[5mC]*d[5mC]*d[5mC]*dT*dT*dG*eA*eA*eA*eT*e[5mC]) [compound 147770] | 67 | –
147503 (antisense eA*eA*eT*eG*eG*dA*dT*dG*dA*dT*dG*dA*dA*dA*d[5mC]*eA*eG*eT*eG*eG) [compound 147503] | 26 | –
147766 (antisense eG*eG*eA*eG*e[5mC]*d[5mC]*d[5mC]*dA*d[5mC]*dG*dT*dG*d[5mC]*dT*dG*eA*eG*eA*eT*eT) [compound 147766] | 59 | –

Substance | %INHIB of mouse apolipoprotein B mRNA levels [%] | further results
147774 (antisense eT*eG*eG*e[5mC]*eT*dA*dG*dT*dT*dT*d[5mC]*dA*dA*dT*d[5mC]*e[5mC]*e[5mC]*e[5mC]*eT*eT) [compound 147774] | 84 | –
147761 (antisense eG*eT*eT*e[5mC]*eA*dT*dG*dG*dA*dT*dT*d[5mC]*d[5mC]*dT*dT*e[5mC]*eA*eG*eG*eA) [compound 147761] | 45 | –
147480 (antisense eT*e[5mC]*eT*e[5mC]*eA*d[5mC]*d[5mC]*d[5mC]*dT*d[5mC]*dA*dT*dG*d[5mC]*dT*e[5mC]*e[5mC]*eA*eT*eT) [compound 147480] | 54 | –
147475 (antisense eA*eT*eT*eG*eT*dA*dT*dG*dT*dG*dA*dG*dA*dG*dG*eT*eG*eA*eG*eG) [compound 147475] | 79 | –
147478 (antisense eT*e[5mC]*e[5mC]*eA*eG*dG*dA*dA*dT*dT*dG*dA*dG*d[5mC]*dT*eT*eG*eT*eG*e[5mC]) [compound 147478] | 78 | –
147495 (antisense eG*eT*eT*eA*eG*dG*dA*d[5mC]*d[5mC]*dA*dG*dG*dG*dA*dT*eT*eG*eT*eG*eA) [compound 147495] | 0 | –
147483 (antisense eA*eT*eG*eT*e[5mC]*dA*dA*dT*dG*d[5mC]*d[5mC]*dA*d[5mC]*dA*dT*eG*eT*e[5mC]*e[5mC]*eA) [compound 147483] | – | Percent Inhibition of mouse apolipoprotein B mRNA levels (50 nM): 56%; Percent Inhibition of mouse apolipoprotein B mRNA levels (150 nM): 88%; Percent Inhibition of mouse apolipoprotein B mRNA levels (300 nM): 89%
147776 (antisense eG*e[5mC]*eT*eT*eG*dA*dA*dG*dT*dT*d[5mC]*dA*dT*dT*dG*eA*eG*eA*eA*eT) [compound 147776] | 92 | Percent Inhibition of mouse apolipoprotein B mRNA levels (50 nM): 0%; Percent Inhibition of mouse apolipoprotein B mRNA levels (150 nM): 17%; Percent Inhibition of mouse apolipoprotein B mRNA levels (300 nM): 44%
147772 (antisense eG*eT*eT*eA*eT*dA*dA*dA*dG*dT*d[5mC]*d[5mC]*dA*dG*d[5mC]*eA*eT*eT*eG*eG) [compound 147772] | 78 | –
147485 (antisense eA*eT*eT*eT*eG*dG*dG*dA*d[5mC]*dG*dA*dA*dT*dG*dT*eA*eT*eG*e[5mC]*e[5mC]) [compound 147485] | 64 | –
147771 (antisense eG*eG*eT*eA*eA*dA*dG*dT*dT*dG*d[5mC]*d[5mC]*d[5mC]*dA*dT*eG*eG*e[5mC]*eT*eG) [compound 147771] | 68 | –
147763 (antisense eT*eG*e[5mC]*eG*eA*d[5mC]*dT*dG*dT*dG*dT*d[5mC]*dT*dG*dA*eT*eT*eT*e[5mC]*e[5mC]) [compound 147763] | 34 | –
147489 (antisense e[5mC]*e[5mC]*eT*eA*eT*dA*d[5mC]*dT*dG*dG*d[5mC]*dT*dT*d[5mC]*dT*eA*eT*eG*eT*eT) [compound 147489] | 5 | –
147493 (antisense eG*e[5mC]*eT*eT*e[5mC]*dA*dT*dT*dA*dT*dA*dG*dG*dA*dG*eG*eT*eG*eG*eT) [compound 147493] | 41 | –
147778 (antisense eT*e[5mC]*eA*eG*eA*dT*dA*dT*dA*d[5mC]*dA*dT*dT*dG*dG*e[5mC]*eT*eT*e[5mC]*eA) [compound 147778] | 14 | –
147496 (antisense eA*e[5mC]*e[5mC]*eA*eT*dG*dG*dA*dA*dA*dA*d[5mC]*dT*dG*dG*e[5mC]*eA*eA*e[5mC]*eT) [compound 147496] | 19 | –
147488 (antisense eA*eG*e[5mC]*eT*eT*dG*d[5mC]*dT*dT*dG*dT*dT*dG*dG*dG*e[5mC]*eA*e[5mC]*eG*eG) [compound 147488] | 72 | –
